Data on three compounds can be found in patent publication US8268306B2, “Pesticidal and antiparasitic compositions” (Centro de Ingenieria Genetica y Biotecnologia, priority 2001, dated 2012).

One assay concerns Haemonchus spp. As to the kind of experiment: In vitro nematicidal effect of hydrogen sulfide and chitinase, egg hatching. Type of assay: cell-based. The note with it: Haemonchus eggs, emerging larvae after 24 hours; fraction E = 1 − Ntto/Nc; mean of 4 replicas. How it is done: (§1) Eggs from zoonematodes Haemonchus spp and Trichostrongylus colubriformis and Dictyocaulus viviparus were used, as well as parasitic phytonematode larvae (juveniles 2) from Melodoigyne incognita.
(§2) Collections of Haemonchus spp and Trichostrongylus colubriformis nematodes were made from ovine (sheep) and bovine (cattle) abomasa, respectively. The adult female nematodes were washed in a physiological solution and treated with “Hibitane” (Chlorhexidine Acetate) at 0.5%, for 1 minute, the process developed at 37° C. Approximately 100 previously disinfected individuals were introduced into an Erlenmeyer containing 50 ml of LB medium solution, diluted 10 times in distilled sterile water, and were left laying their eggs overnight (8-10 hours).
(§3) From that moment on, manipulation was done under aseptic conditions in a vertical laminar flow, using 24-well tissue culture plates. The total volume of the medium that contained the females and the eggs was filtered with a sift net of 60 μm. The nematode eggs were trapped on the 30 μm net of a second sifts. It was introduced into a Hibitane solution at 0.5% for 3 minutes, followed by three washes with LB medium diluted 10 times in sterile distilled water.
(§4) Once disinfected, the eggs were removed from the sift and were carefully resuspended with a LB medium solution diluted 10 times in sterile distilled water. The final result of the distribution was checked by counting and registering the eggs in each well with an inverted Olympus microscope, observations of the uniformity of the evolutionary state in this phase were made too.
(§5) The Haemonchus spp and T. colubriformis' eggs hatch between 24 and 48 hours of incubation at 28° C., whereas the D. vivparus' eggs hatch before 24 hours. A good sample preparation is accomplished when in all the untreated controls more than 60% of hatching occurs in the previously foreseen times for each species.
(§6) The nematode's eggs and larvae were placed in a number of 100 individuals in approximately 2 ml of LB medium diluted 10 times. This volume was introduced into safety valves that allow the air to go through the liquid and, therefore, the gasses make contact with the eggs and larvae. Every valve was a replica for each treatment.
(§7) The hydrogen sulfide was obtained by a reaction against the chloride acid of two sulfide salts (Na2S and FeS), and from an anaerobial fermentation of bacterium Desulfovibrio desulfuricans subs. desulfuricans ATCC 27774 (isolated from an ovine rumen). The chitinolytic enzyme used was chitinase SIGMA C 1650, from bacterium Serratia marcescens.
(§8) The nematode's eggs and larvae under the study were subjected to the following treatments for 24 hours:
(§9) 1. Control treatment: chitinase not applied, and air circulated through the valve.
(§10) 2. Chitinase treatment: chitinase at a rate of 0.2 units per replica.
(§11) 3. Sulfide treatment: hydrogen sulfide from Na2S with a 0.2 flux at 0.3 mg/minute.
(§12) 4. Sulfide treatment: hydrogen sulfide from FeS with a 0.2 flux at 0.3 mg/minute.
(§13) 5. Sulfide treatment: hydrogen sulfide from Desulfovibrio desulfuricans with a 0.2 flux at 0.3 mg/minute.
(§14) 6. Combined treatment: simultaneous application of treatments 2 and 3.
(§15) 7. Combined treatment: simultaneous application of treatments 2 and 4.
(§16) 8. Combined treatment: simultaneous application of treatments 2 and 5.
(§17) All the above treatments had 4 replicas.
(§18) Twenty-four hours after starting the experiment the emerging larvae (Haemonchus sp., T. colubriformis and D. viviparous) and the number of live larvae (Melodogyne incognita) in all the treatments, were counted. This value is the mean of the 4 replicas in every treatment. The variance analysis (ANOVA) was applied to the results obtained in each nematode species in the study, separately; the Duncan test (Lerch G. 1977. La Experimentación en las ciencias biológicas y agrícolas. 1^ra edición, p.p. 203-308, Editorial Científico-Técnica, La Habana) was applied, which is also shown in table 1. […]

Assay [1] relates to Trichostrongylus colubriformis. Described as above. The note with it: Trichostrongilus eggs, emerging larvae after 24 hours; fraction E = 1 − Ntto/Nc; mean of 4 replicas. Type of assay: cell-based. How it is done:
as §1, §2, §3, §4, §5, §6, §7, §8, §9, §10, §11, §12, §13, §14, §15, §16, §17, §18

The test system of the next assay is Dictyocaulus viviparus. The description is as above. In kind it is cell-based. The note with it: Dictyocaulus eggs, emerging larvae after 24 hours; fraction E = 1 − Ntto/Nc; mean of 4 replicas. How it is done:
as §1
Collections of D. viviparous nematode were made from the infested lung of a bovine (cattle), previously sacrificed. The same procedure was used for Haemochus spp. and T. colubriformis; however, the females were allowed to lay their eggs for 2-3 hours.
as §3, §4, §5
The nematode's eggs and larvae were placed in a number of 100 individuals in approximately 2 ml of LB medium diluted 10 times. This volume was introduced into safety valves that allow the air to go through the liquid and, therefore, the gasses make contact with the eggs and larvae. […]
(§19) Twenty-four hours after starting the experiment the emerging larvae (Haemonchus sp., T. colubriformis and D. viviparous) and the number of live larvae (Melodogyne incognita) in all the treatments, were counted. […]

The test system of another assay is Melodoigyne incognita. As to the kind of experiment: In vitro nematicidal effect of hydrogen sulfide and chitinase, live larvae (juveniles 2). The settings on record: Meloidogyne larvae, live larvae after 24 hours; fraction E = 1 − Ntto/Nc; mean of 4 replicas. Type of assay: cell-based, Meloidogyne incognita. The procedure: as §1
The collection of egg mass of Meloidogyne incognita was performed from squash roots (Cucurbita pepo), previously infested and cultivated in greenhouses. For this operation a stereoscope microscope and needles with properly altered tips were used. The masses were put in sterile distilled water in Petri dishes at 28° C., in a number of 50 masses per dish. Daily observations were made to check egg hatching. In approximately 72 hours, there were enough larvae to start collecting and disinfecting.
The total volume of water containing the egg masses and the larvae were filtered through a sift net of 60 μm. From that moment on all the manipulation was done under aseptic conditions in a vertical laminar flow, using 24-well tissue culture plates. The eggs detached from the mass were unable to hatch and remained on the sift net of 30 μm; the larvae were collected with a further net of 5 μm. It was introduced into a Hibitane solution at 0.5% for 3 minutes followed by 3 washes with LB medium diluted 10 times in sterile distilled water. Once disinfected, the Meloidogyne incognita larvae were removed from the sift net and carefully resuspended with a LB medium solution diluted 10 times in sterile distilled water. The final collecting and disinfecting results were checked by counting and registering the live larvae with an inverted Olympus microscope.
The nematode's eggs and larvae were placed in a number of 100 individuals in approximately 2 ml of LB medium diluted 10 times. This volume was introduced into safety valves that allow the air to go through the liquid and, therefore, the gasses make contact with the eggs and larvae. Every valve was a replica for each treatment. […]
as §19

`S` [3. Esn, hydrogen sulfide]: the “Treatment effectiveness (E)” value in the assay on Haemonchus spp is reported as 0.41; in assay [1], 0.40; in the assay on Dictyocaulus viviparus it was 0.44; in the assay on Melodoigyne incognita, 0.51.

Regarding `S` [4. Esf, hydrogen sulfide], the “Treatment effectiveness (E)” value is reported as 0.40 in the assay on Haemonchus spp, 0.39 in assay [1], 0.42 with Dictyocaulus viviparus and 0.52 in the assay on Melodoigyne incognita.

In the case of `S` [5. Esd, hydrogen sulfide], the “Treatment effectiveness (E)” value was 0.37 in the assay with Haemonchus spp, 0.38 in assay [1], 0.40 in the assay with Dictyocaulus viviparus and 0.47 in the assay on Melodoigyne incognita.
